pIC50: −log10 of the molar value. Structures can show the parent of a compound that is named as a salt. Where two headings read alike, the source gives them in different places. Each block holds one molecule with its values, some of them ahead of it.
Columns and labels:
[1] = system: rats pretreated with d-amphetamine; experiment: Reduction of amphetamine-induced hyper-locomotion; format: in vivo, rat; settings: read-out: ED50 amf (reduction of amphetamine-induced hyper-locomotion, estimated ED50 values)
Method: In this model, dopaminergic neurotransmission is increased by systemic administration of d-amphetamine at a dose that is sufficiently high to produce a large increase in locomotor activity. The ability of a compound to antagonize this hyperactivity reflects anti-dopaminergic properties, which are part of the dopaminergic stabiliser profile.
Behavioural activity was measured using eight Digiscan activity monitors (RXYZM (16) TAO, Omnitech Electronics, Columbus, Ohio, USA), connected to an Omnitech Digiscan analyzer and a Apple Macintosh computer equipped with a digital interface board (NB DIO-24, National Instruments, USA). Each activity monitor consisted of a quadratic metal frame (W×L 40×40 cm) equipped with photobeam sensors. During measurements of behavioural activity, a rat was put in a transparent acrylic cage (W×L×H, 40×40×30 cm) which in turn was placed in the activity monitor. Each activity monitor was equipped with three rows of infrared photobeam sensors, each row consisting of 16 sensors. Two rows were placed along the front and the side of the floor of the cage, at a 90° angle, and the third row was placed 10 cm above the floor to measure vertical activity. Photobeam sensors were spaced 2.5 cm apart. Each activity monitor was fitted in an identical sound and light attenuating box containing a weak house light and a fan.
Behavioural data from each activity monitor, representing the position (horizontal centre of gravity and vertical activity) of the animal at each time, were recorded at a sampling frequency of 25 Hz and collected using a custom written LABView™ application. The data from each recording session were stored and analyzed with respect to distance traveled. Each behavioural recording session lasted 60 min, starting approximately 4 min after the injection of test compound. […] The results are presented as counts/60 minutes, or counts/30 minutes, in arbitrary length units. Statistical comparisons were carried out using student's t-test vs the control group.
For most compounds, the evaluation is based on 16 amphetamine pre-treated animals over the dose range 0, 11, 33 and 100 μmol/kg s.c. in one single experiment, with complementary doses in separate experiments. Calculations are based on distance during the last 45 minutes of one hour of measurement. […] To estimate confidence levels for the parameters, the fit is repeated 100 times with a random evenly distributed squared weight (0 to 1) for every measurement value.

[2] = biological target: hERG ion channel (Homo sapiens, UniProt Q12809); experiment: hERG affinity by Rapid ICE automated patch-clamp (HEK293 cells stably transfected with HERG cDNA)
hERG ion channel, sequence (Q12809 whole entry): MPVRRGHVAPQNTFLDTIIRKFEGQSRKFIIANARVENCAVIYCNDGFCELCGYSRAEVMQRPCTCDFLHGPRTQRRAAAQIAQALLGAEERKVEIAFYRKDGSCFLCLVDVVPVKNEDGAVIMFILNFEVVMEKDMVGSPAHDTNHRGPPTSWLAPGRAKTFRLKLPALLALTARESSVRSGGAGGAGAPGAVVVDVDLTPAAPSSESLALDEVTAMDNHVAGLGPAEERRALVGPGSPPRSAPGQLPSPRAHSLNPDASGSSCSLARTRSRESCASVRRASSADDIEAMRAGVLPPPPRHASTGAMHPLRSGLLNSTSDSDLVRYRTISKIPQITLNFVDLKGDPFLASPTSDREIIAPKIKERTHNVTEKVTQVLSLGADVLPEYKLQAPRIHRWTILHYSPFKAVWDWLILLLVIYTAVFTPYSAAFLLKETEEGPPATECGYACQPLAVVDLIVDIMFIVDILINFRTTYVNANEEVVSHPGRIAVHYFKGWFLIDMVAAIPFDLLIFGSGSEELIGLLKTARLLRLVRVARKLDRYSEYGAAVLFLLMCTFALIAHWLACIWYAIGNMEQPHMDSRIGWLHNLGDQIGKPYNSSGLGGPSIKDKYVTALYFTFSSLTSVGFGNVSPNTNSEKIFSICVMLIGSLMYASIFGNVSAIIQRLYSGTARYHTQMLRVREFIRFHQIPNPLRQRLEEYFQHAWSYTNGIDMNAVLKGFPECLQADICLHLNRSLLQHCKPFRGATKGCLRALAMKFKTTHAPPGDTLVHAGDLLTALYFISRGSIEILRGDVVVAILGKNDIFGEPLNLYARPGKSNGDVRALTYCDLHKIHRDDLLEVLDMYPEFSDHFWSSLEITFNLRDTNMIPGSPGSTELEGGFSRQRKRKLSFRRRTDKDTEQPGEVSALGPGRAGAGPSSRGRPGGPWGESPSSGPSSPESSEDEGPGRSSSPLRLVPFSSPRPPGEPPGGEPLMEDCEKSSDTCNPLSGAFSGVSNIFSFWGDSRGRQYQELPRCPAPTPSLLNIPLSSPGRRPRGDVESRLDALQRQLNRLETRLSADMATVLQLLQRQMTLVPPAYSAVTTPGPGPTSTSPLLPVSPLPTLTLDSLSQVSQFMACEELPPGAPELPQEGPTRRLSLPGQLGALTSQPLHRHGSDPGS
From the text: Rapid ICE™ (Rapid Ion Channel Electrophysiology) is an automated patch-clamp assay utilising the PatchXpress 7000A system (Axon Instruments). Rapid ICE™ assesses the effect of test substances on HERG tail current recorded from HEK293 cells stably transfected with HERG cDNA.
HERG.T.HEK (HEK293 cells stably transfected with HERG cDNA) were obtained from the University of Wisconsin. These cells are held in cryogenic storage at Quintiles and also maintained in culture. The cells are continuously maintained in and passaged using minimum essential medium supplemented with 10% foetal bovine serum, 1% non-essential amino acids, 1% sodium pyruvate and 0.4 mg/ml geneticin. For use in Rapid ICE™ studies, 4 ml of the cells are placed into falcon tubes at a density of 2.5×10^5/ml. The falcon tubes are stored in a humidified, gassed (5% CO2) incubator at 37° C. and cells are used within 2.5 h of storage. Just prior to experimentation, these cells are centrifuged at 1000 rpm for 1 min, the supernatant decanted and the cells re-suspended in 150 μl of bath solution in a 1.5 ml eppendorf tube.
The PatchXpress system is primed with appropriate extracellular (bath) and intracellular (pipette) solutions prior to conducting a study. A 16 well sealchip (Sealchip16, Aviva Bio-sciences Corp) is loaded into the system and primed before preparing cells in the bath solution suspension. The cell eppendorf is placed into the designated position and the procedure commences with the trituration and dispersion of cells into each well (recording chamber) of the sealchip. The PatchXpress system follows the general principles of conventional whole-cell patch-clamping: a high resistance seal is formed between the patch electrode and an individual cell, the membrane across the electrode tip is ruptured and the whole-cell patch-clamp configuration is established. If the quality of the cell is judged to be poor, the experiment may be terminated at this point and if necessary, the process repeated on another sealchip.
Once a stable patch has been achieved, recording commences in voltage-clamp mode, with the cell initially clamped at −80 mV. The standard voltage profile is as follows: step from −80 mV to −50 mV for 200 ms, +20 mV for 4.8 s, step to −50 mV for 5 s then step to the holding potential of −80 mV. The step from −80 mV to the test command (+20 mV) results in an outward current (i.e. current flows out of the cell) and the step from the test command (+20 mV) to −50 mV results in the tail current (the tail current represents deactivation of the current over time). […] Each value represents the average current recorded from 4 sequential voltage pulses. For each cell the effects of the test substance is determined by calculating the residual current (% control) compared with vehicle pre-treatment. […]

[3] = system: 3,4 dihydroxyphenylacetic acid (DOPAC) in striatum; experiment: In vivo neurochemistry: DOPAC in striatum; settings: rat, 100 μmol/kg s.c.
From the text: After the behavioural activity sessions, the rats were decapitated and their brains rapidly taken out and put on an ice-cold petri-dish. The limbic forebrain, the striatum, the frontal cortex and the remaining hemispheral parts of each rat were dissected and frozen. Each brain part was subsequently analyzed with respect to its content of monoamines and their metabolites.
The monoamine transmitter substances (NA (noradrenaline), DA (dopamine), 5-HT (serotonin)) as well as their amine (NM (normethanephrine), 3-MT (3-methoxytyramine)) and acid (DOPAC (3,4-dihydroxyphenylacetic acid), 5-HIAA (5-hydroxyindoleacetic acid), HVA (homovanillic acid)) metabolites are quantified in brain tissue homogenates by HPLC separations and electrochemical detection.
The analytical method is based on two chromatographic separations dedicated for amines or acids. Two chromatographic systems share a common auto injector with a 10-port valve and two sample loops for simultaneous injection on the two systems. Both systems are equipped with a reverse phase column (Luna C18(2), dp 3μ, 50*2 mm i.d., Phenomenex) and electrochemical detection is accomplished at two potentials on glassy carbon electrodes (MF-1000, Bioanalytical Systems, Inc.). Via a T-connection the column effluent is passed to the detection cell or to waste. […]

[4] = Metabolic stability in rat liver microsomes; format: in vitro ADME; settings: 15 min incubation at 37° C., NADPH
Method: Rat liver microsomes were isolated as described by Forlin (1980) Effects of Clophen A50, 3-methylcholantrene, pregnenolone-16aq-carbonitrile and Phenobarbital on the hepatic microsomal cytochrome P-450-dependent monooxygenaser system in rainbow trout, salmo garirdneri, of different age and sex. Tox Appl Pharm. […]
1 μL of, 0.2 or 1 mM test substance diluted in water and 10 μL 20 mg/mL rat liver micro-some were mixed with 149 μL 37° C. buffer 1 and the reaction was started by addition of 40 μL 4.1 mg/mL NADPH. […] The test compound was analysed using HPLC-MS (Hewlett-Packard 1100MSD Series) with a Zorbax SB-C18 column (2.1*150 mm, 5 μm) using 0.03% formic acid and acetonitrile as mobile phase (gradient) or a Zorbax Eclipse XDB-C18 (3*75 mm, 3.5 μm) using 0.03% acetic acid and acetonitrile as mobile phase (gradient). The 15 min turnover was calculated as the fraction of test compound eliminated after 15 minutes, expressed in percent of 0 min levels, ie 100*[conc test compound at 0 min−concentration at 15 min]/conc at 0 min.

[5] = system: MK-801 pre-treated rats; experiment: Locomotor activity in MK-801 pre-treated rats; format: in vivo, rat; settings: MK-801 0.7 mg/kg i.p. 90 min before test compound, recorded 30-60 min after administration
Method: Another animal model of antipsychotic activity is based on administration of the glutamate antagonist MK-801. Glutamate antagonists (i.e. NMDA antagonists), can induce psychoses in man (see Psychopharmacology, 4th Generation of progress Chapter 101, p. 1205 and 1207) and induce behavioural aberrations in animals. […] In this study the NMDA antagonist MK-801 (0.7 mg/kg i.p.) was used to create a hypoglutamatergic state where the rats display abnormal, hyperactive behaviour. Compounds in the present invention dose-dependently reverse the behavioural aberration induced by MK-801 (see Table 2).
Behavioural activity was measured using eight Digiscan activity monitors (RXYZM (16) TAO, Omnitech Electronics, Columbus, Ohio, USA), connected to an Omnitech Digiscan analyzer and a Apple Macintosh computer equipped with a digital interface board (NB DIO-24, National Instruments, USA). Each activity monitor consisted of a quadratic metal frame (W×L 40×40 cm) equipped with photobeam sensors. […]
Behavioural data from each activity monitor, representing the position (horizontal centre of gravity and vertical activity) of the animal at each time, were recorded at a sampling frequency of 25 Hz and collected using a custom written LABView™ application. The data from each recording session were stored and analyzed with respect to distance traveled. […]

[6] = Oral bioavailability in rat; format: in vivo; settings: plasma, oral 12.5 μmol/kg vs i.v. 5 μmol/kg, AUC ratio
Method: Experiments are performed 24 hours after implantation of arterial and venous catheters. Test compound is administered orally at 12.5 μmol/kg or intravenously at 5 μmol/kg using the venous catheters, n=3 per group. Arterial blood samples are then taken during […] at 0, 3, 9, 27, 60, 120, 180, 240, 300 and, 360 minutes after administration of the test compound. The oral bioavailability was calculated as the ratio of the AUC (Area under curve) obtained after oral administration over the AUC obtained after intravenous administration for each rat. The parameter AUC was calculated according to the following: AUC: the area under the plasma concentration versus time curve from time zero to the last concentration measured (Clast), calculated by the log/linear trapezoidal method.
The levels of test compound are measured by means of liquid chromatography-mass spectrometry (LC-MS). (Hewlett-Packard 1100MSD Series). The module include a quaternary pump system, vacuum degasser, thermostatted autosampler, thermostatted column compartment, diode array detector and API-ES spray chamber. […]
Extractions procedure: Plasma samples (0.25-0.5 ml) were diluted with water to 1 ml, and 60 pmol (100 μl) internal standard (−)-OSU6241 was added. […] The selective ion (MH^+) was monitored for each Example, and MH^+ 296 for (−)-OSU6241 ((3-[3-(ethylsulfonyl)phenyl]-1-propylpiperidine). […]

[7] = rat, test compound s.c., d-amphetamine 1.5 mg/kg i.p., distance during last 45 min of one hour

Structure (SMILES): CCCN1CCC(c2cc(F)cc(C(F)(F)F)c2)CC1 [reference compound]
ED50 [1, 7]: 14 µmol/kg
pIC50 [2]: 5.82

Structure (SMILES): CCCN1CCC(c2ccc(Cl)c(C(F)(F)F)c2)CC1 [reference compound]
ED50 ([1]; Rattus norvegicus): 34 µmol/kg
pIC50 [2]: 6.21

Structure (SMILES): CCCN1CCC(c2cc(F)cc(S(C)(=O)=O)c2)CC1 (as salt: hydrochloric acid salt) [Example 1, 4-[3-fluoro-5-(methylsulfonyl)phenyl]-1-propylpiperidine]
melting point: 187 to 189 °C

Structure (SMILES): CCCN1CCC(c2cccc(S(C)(=O)=O)c2)CC1
ED50 ([1]; Rattus norvegicus): 52 µmol/kg

Structure (SMILES): CCCN1CCC(c2cc(F)cc(S(C)(=O)=O)c2)CC1 [Example 1, 4-[3-fluoro-5-(methylsulfonyl)phenyl]-1-propylpiperidine]
DOPAC in striatum [3]: 318 % of control
ED50 [1, 7]: 12 µmol/kg
Turnover at 15 minutes in rat liver microsomes [4]: 5%
Locomotor activity, MK + example 100 μmol/kg [5]: 20858 ± 4638 (P = 0.01) counts/30 min ± SEM
pIC50 [2]: 5.01

Now from value to molecule, other results behind:

melting point: 176 to 178 °C
Structure (SMILES): CCN1CCC(c2cc(F)cc(S(C)(=O)=O)c2)CC1 (as salt: hydrochloric acid salt) [Example 2, 1-ethyl-4-[3-fluoro-5-(methylsulfonyl)phenyl]piperidine]

Turnover at 15 minutes in rat liver microsomes [4]: 0%
bioavailability [6]: ~85%
Structure (SMILES): CCN1CCC(c2cc(F)cc(S(C)(=O)=O)c2)CC1 [Example 2, 1-ethyl-4-[3-fluoro-5-(methylsulfonyl)phenyl]piperidine]
DOPAC in striatum [3]: 292 % of control
ED50 [1, 7]: 28 µmol/kg
Locomotor activity, MK + example 100 μmol/kg [5]: 24012 ± 5511 (P = 0.03) counts/30 min ± SEM
pIC50 [2]: 4.66
